Laboratory results as given in patent EP3029024A1, “2-(2-aminophenoxy)-3-chloronaphthalene-1,4-dione compounds having orexin 2 receptor agonist activity” (Ferrer Internacional, S.A., priority 2014, dated 2016).
pEC50: −log10 of the molar value.

Molecular target: T1, OX2 receptor (Homo sapiens, UniProt O43614)
T1 construct: expressed in transfected cells; host or cells: unnamed cell line stably co-expressing apoaequorin and OX2 receptor, cultured in Ham's F12 with G418 and Zeocin
T1 sequence (O43614 1-444): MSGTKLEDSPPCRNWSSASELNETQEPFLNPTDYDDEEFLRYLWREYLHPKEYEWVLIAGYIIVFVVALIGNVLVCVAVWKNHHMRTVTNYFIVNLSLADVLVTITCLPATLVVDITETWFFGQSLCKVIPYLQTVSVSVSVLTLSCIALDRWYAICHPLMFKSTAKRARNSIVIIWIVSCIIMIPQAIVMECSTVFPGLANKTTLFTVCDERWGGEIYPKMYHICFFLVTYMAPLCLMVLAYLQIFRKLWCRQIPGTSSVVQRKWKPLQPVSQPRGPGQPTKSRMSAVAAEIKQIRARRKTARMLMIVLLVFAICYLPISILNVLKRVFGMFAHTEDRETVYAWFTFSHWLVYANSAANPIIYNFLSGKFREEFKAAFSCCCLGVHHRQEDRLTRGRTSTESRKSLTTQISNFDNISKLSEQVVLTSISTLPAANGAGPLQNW
Assay: Functional assay for in vitro evaluation of OX2 receptor agonist activity (aequorin light emission, increase in intracellular calcium)
Type: cell-based
Conditions: OX2R Agonism
Source text: The method of choice for the in vitro evaluation of OX2 receptor agonists is the measure of the increase in intracellular calcium induced by the activation of the receptor. OX2 receptor is stably expressed in a cell line co-expressing apoaequorin, a photoprotein which needs a hydrophobic prosthetic group, coelenterazine, to be converted to aequorin, the active enzyme. After calcium binding, aequorin oxidizes coelenterazine to coelenteramide with the production of CO2 and emission of light. The measurement of light emission after the addition of agonists reflects its ability to activate the receptor.
Cell line co-expressing apoaequorin and OX2 receptor were cultured as a monolayer at 37°C and 5% CO2 in complete Ham's F12 medium supplemented with FBS 10%, penicillin (100 IU/ml)-streptomycin (100 µg/ml), Geneticin (G418, 400 µg/ml) and Zeocin (250 µg/ml). Before starting the experiment, cells were incubated with a medium without antibiotics for 18 hours. After this incubation, the cells were detached from the culture plates and they were resuspended in DMEM-F12/0.1% BSA at a final concentration of 5x10^6 cells/ml. Cells were then incubated with 5 µM of coelenterazine at room temperature on a vertical rotating wheel for at least 3 hours. Following incubation with coelenterazine cells were diluted 1:10 with DMEM-F12/0.1% BSA and incubated in magnetic agitation for 1 hour.
Dose-response curves were performed for each compound. 50 µl of pre-loaded cells were injected over test compounds in a 96 wells plate. Results were expressed as the concentration of the compound where 50% of its maximal effect is observed (EC50), related to the maximum effect induced by the orexin peptide on the receptor. OX2R Agonism

[1] = Table 1, cell line co-expressing apoaequorin and OX2 receptor, related to the maximum effect induced by the orexin peptide
[2] = Table 2, comparative examples (compounds described in PCT/EP2014/062349), same experimental methodology

Row | SMILES | pEC50 [1] | pEC50 [2]
1 | Cc1cc(Cl)cc(N)c1OC1=C(Cl)C(=O)c2ccccc2C1=O [Example 5, 2-(2-amino-4-chloro-6-methylphenoxy)-3-chloronaphthalene-1,4-dione] | 7.10 | 
2 | Nc1ccc(F)cc1OC1=C(Cl)C(=O)c2ccccc2C1=O [Example C9] |  | 6.41
3 | Cc1cc(C)c(N)c(OC2=C(Cl)C(=O)c3ccccc3C2=O)c1C [Example 8, 2-(2-amino-3,5,6-trimethylphenoxy)-3-chloronaphthalene-1,4-dione] | 7.24 | 
4 | CC(=O)c1ccc(OC2=C(Cl)C(=O)c3ccccc3C2=O)c(N)c1 [Example C7] |  | 5.36
5 | Cc1cc(Br)cc(N)c1OC1=C(Cl)C(=O)c2ccccc2C1=O [Example 6, 2-(2-amino-4-bromo-6-methylphenoxy)-3-chloronaphthalene-1,4-dione] | 7.05 | 
6 | Nc1ccccc1OC1=C(Cl)C(=O)c2ccccc2C1=O [Example C1] |  | 6.29
7 | Cc1ccc(OC2=C(Cl)C(=O)c3ccccc3C2=O)c(N)c1 [Example C2] |  | 6.62
8 | Cc1c(Cl)ccc(OC2=C(Cl)C(=O)c3ccccc3C2=O)c1N [Example 3, 2-(2-amino-4-chloro-3-methylphenoxy)-3-chloronaphthalene-1,4-dione] | 6.96 | 
9 | Nc1ccc(Cl)cc1OC1=C(Cl)C(=O)c2ccccc2C1=O [Example C4] |  | 6.13
10 | Nc1cc(F)ccc1OC1=C(Cl)C(=O)c2ccccc2C1=O [Example C5] |  | 6.24
11 | Cc1ccc(C)c(OC2=C(Cl)C(=O)c3ccccc3C2=O)c1N [Example C12] |  | 6.82
12 | COC(=O)c1ccc(OC2=C(Cl)C(=O)c3ccccc3C2=O)c(N)c1 [Example C6] |  | 5.39
13 | Cc1cc(C)c(N)c(OC2=C(Cl)C(=O)c3ccccc3C2=O)c1 [Example 4, 2-(2-amino-3,5-dimethylphenoxy)-3-chloronaphthalene-1,4-dione] | 7.22 | 
14 | COc1ccc(N)c(OC2=C(Cl)C(=O)c3ccccc3C2=O)c1Cl [Example 2, 2-(6-amino-2-chloro-3-methoxyphenoxy)-3-chloronaphthalene-1,4-dione] | 7.30 | 
15 | Cc1ccc(OC2=C(Cl)C(=O)c3ccccc3C2=O)c(N)c1C [Example 7, 2-(2-amino-3,4-dimethylphenoxy)-3-chloronaphthalene-1,4-dione] | 7.30 | 
16 | Cc1cc(N)c(OC2=C(Cl)C(=O)c3ccccc3C2=O)cc1C [Example C10] |  | 6.17
17 | Nc1cc(C(F)(F)F)ccc1OC1=C(Cl)C(=O)c2ccccc2C1=O [Example C8] |  | 6.15
18 | Nc1cc(Cl)cc(Cl)c1OC1=C(Cl)C(=O)c2ccccc2C1=O [Example C11] |  | 6.41
19 | Nc1cc(Cl)ccc1OC1=C(Cl)C(=O)c2ccccc2C1=O [Example C3] |  | 6.13
20 | COc1ccc(N)c(OC2=C(Cl)C(=O)c3ccccc3C2=O)c1C [Example 1, 2-(6-amino-3-methoxy-2-methylphenoxy)-3-chloronaphthalene-1,4-dione] | 7.55 | 
21 | Cc1cc(C)c(OC2=C(Cl)C(=O)c3ccccc3C2=O)c(N)c1C [Example 9, 2-(2-amino-3,4,6-trimethylphenoxy)-3-chloronaphthalene-1,4-dione] | 6.89 | 
